Reference: patent publication US12370231B2, “Compositions for inhibiting degradation of hyaluronic acid and methods of use thereof” (Epidarus Therapeutics, LLC, priority 2020, dated 2025)
Each block holds one compound with its values, some of them ahead of it.

Experiments:
Assay type in all cases: biochemical
[1] = molecular target: T1, HYAL1 (Homo sapiens, UniProt Q12794); experiment: Anti-HYAL1 activity of Epidarus Extract Mix after incubation with antimicrobial agents; conditions: agent at 0.3%; 5 mg/ml Epidarus Extract Mix in 5% 1,3 Propanediol/Water, 48 hours, 37 degrees; relative to control without agent
T1 construct: Human HYAL1 enzyme was isolated from urine following published protocols; from tissue; host or cells: human urine
T1 sequence (Q12794 22-435): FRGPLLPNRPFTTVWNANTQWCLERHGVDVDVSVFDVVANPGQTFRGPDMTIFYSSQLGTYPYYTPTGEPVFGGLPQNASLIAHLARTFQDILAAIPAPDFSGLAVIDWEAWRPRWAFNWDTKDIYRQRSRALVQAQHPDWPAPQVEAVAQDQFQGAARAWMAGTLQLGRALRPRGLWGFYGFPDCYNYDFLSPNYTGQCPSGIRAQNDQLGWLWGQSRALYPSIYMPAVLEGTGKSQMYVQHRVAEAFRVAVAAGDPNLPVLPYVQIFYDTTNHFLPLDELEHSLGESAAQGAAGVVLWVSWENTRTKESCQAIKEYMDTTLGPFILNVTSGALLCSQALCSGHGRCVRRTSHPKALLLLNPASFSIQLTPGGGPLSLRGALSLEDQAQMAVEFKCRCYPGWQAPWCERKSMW
Experimental: In order to achieve stable, bio-active cosmeceutical formulations, a range of commercially available cosmetic ingredients were assessed for their ability to solubilize the Prunella, Linden or Star Anise extracts or mixed extracts of Prunella, Linden or Star Anise without compromising the HYAL1—inhibitory activity of the botanical extracts. These included, for example: Sepigel 305™, Simugel 600™, Arlasolve™-DMI, Carbopol® Ultrez 21, Hydrolyte®5, Hydrolyte®6 and Zemea® 1,3 Propanediol. In addition, a number of preservative/antimicrobial compounds were similarly assessed for efficacy and effects on biological activity of the added botanical extracts. These included, for example: Phenoxyethanol, Optiphen™ (Phenoxyethanol and Caprylyl Glycol), Methylparaben and Chlorphenesin.
The antimicrobial agents were incubated in a solution of 5% 1,3 Propanediol/Water containing 5 mg/ml of Epidarus Extract Mix (Prunella, Star Anise and Linden) at the indicated concentrations for 48 hours at 37 degrees Centigrade. The anti-HYAL1 activity was measured relative to a control without added antimicrobial agents.

[2] = molecular target: T1, HYAL1; experiment: HYAL1-inhibitory activity of Epidarus extracts after simulated digestion with additives/excipients; conditions: test ingredient with Epidarus extracts, after simulated gastric and intestinal digestion
Experimental: In order to develop bio-active formulations for osteoarthritis and bladder […] cystitis therapies in humans and animals, oral bio-availability studies were undertaken. […] Maltodextrin is a partially hydrolyzed vegetable starch and is made from corn, rice, potato starch, wheat, or other vegetable sources. […] The gastric digest was adjusted to pH 6.8 with 1M Sodium Hydroxide and mixed with an equivalent volume of Simulated Intestinal Fluid (SIF) to which was added a commercial preparation of canine pancreatic enzymes, at the following concentrations: Lipase (2,000 to 10,000 Units per ml), Protease (100 to 1,000 Units per ml), Amylase (200 to 2,000 Units per ml) and Bile Salts to 10 mM. Following the simulated complete digestion of the chew/tablet formulations, the levels of active ingredients were assayed and the HYAL1-inhibitory activity was determined. These assays were used to test a range of additives/excipients used in the production of functional nutritional supplements for human and animal use.

[3] = molecular target: T1, HYAL1; experiment: HYAL1 degradation of synovial fluid HA; conditions: 12 ug Synovial Fluid HA per assay, 2 hours, 37 degrees
Experimental: Human HYAL1 enzyme was isolated from urine following published protocols (Afify, A. M. et al. Archives of Biochemistry and Biophysics 305, 434-441, 1993). The enzyme activity was calibrated and validated by comparison to commercially available recombinant human HYAL1 (R&D Systems, USA).
Synovial fluid from healthy joints is a solution of 5 to 7 mg/ml of High Molecular weight Hyaluronic Acid. The bovine metacarpopharangeal joints used in these experiments were from 2 year old steers and the synovial fluid was verified by Agarose Gel electrophoresis to be composed of predominantly High MW HA.
Degradation of Synovial Fluid by urinary HYAL1 breaks down the HA to tetra-saccharides in 2 hours at 37 degrees, using a standard HYAL1 assay, testing 12 ug Synovial Fluid HA per assay.
An extract mixture containing Star Anise Pod Extract, Linden Flower Extract and Prunella Flower Spike Extract was also tested to determine the minimum concentration of extract mix required to achieve 100% inhibition of Synovial Fluid HA under the same conditions as used for pentosan polysulfate. This concentration was determined to be 280 ng/ml.

Anti-HYAL1 Activity [1]: 45%
Compound: COC(=O)c1ccc(O)cc1 [Methylparaben]

% Inhibition of anti-HYAL1 activity [2]: 0%
Compound: CCCCCCCCCCCCCCCCCC(=O)O [Stearic Acid]

concentration causing 100% inhibition of HYAL1 [3]: 156 ng/mL
Compound: pentosan polysulfate
